Measured values from ChEMBL document CHEMBL3045502, “Microwave-assisted synthesis of some new tetrazolo[1,5-a]quinoline-based benzimidazoles catalyzed by p-TsOH and investigation of their antimicrobial activity” (2011).
Values after ≈ are worked out from the molar mass of the structure shown.

Key:
Type in all cases: functional
Candida albicans = test: Antimicrobial activity against Candida albicans MTCC 227 after 24 to 48 hr by broth microdilution method
Vibrio cholerae = test: Antimicrobial activity against Vibrio cholerae MTCC 3906 after 24 to 48 hr by broth microdilution method
Aspergillus fumigatus = test: Antimicrobial activity against Aspergillus fumigatus MTCC 3008 after 24 to 48 hr by broth microdilution method
Salmonella typhimurium = test: (§1) Antimicrobial activity against Salmonella enterica subsp. enterica serovar Typhi MTCC 98 after 24 to 48 hr by broth microdilution method
Escherichia coli = test: Antimicrobial activity against Escherichia coli MTCC 443 after 24 to 48 hr by broth microdilution method
Streptococcus pneumoniae = test: Antimicrobial activity against Streptococcus pneumoniae MTCC 1936 after 24 to 48 hr by broth microdilution method
Clostridium tetani = test: Antimicrobial activity against Clostridium tetani MTCC 449 after 24 to 48 hr by broth microdilution method
Bacillus subtilis = test: Antimicrobial activity against Bacillus subtilis MTCC 441 after 24 to 48 hr by broth microdilution method
[1] = as §1

Row | Molecule | MIC (Candida albicans) | MIC (Vibrio cholerae) | MIC (Aspergillus fumigatus) | MIC (Salmonella typhimurium) | MIC (Escherichia coli) | MIC (Streptococcus pneumoniae) | MIC (Clostridium tetani) | MIC (Bacillus subtilis) | MIC [1]
1 | COc1ccc2c(c1)cc(-c1nc3cc(C)ccc3[nH]1)c1nnnn12 | 250 µg/mL (≈ 757 µM) | 500 µg/mL (≈ 1510 µM) | 500 µg/mL (≈ 1510 µM) | 500 µg/mL (≈ 1510 µM) | 500 µg/mL (≈ 1510 µM) | 500 µg/mL (≈ 1510 µM) | 250 µg/mL (≈ 757 µM) | 500 µg/mL (≈ 1510 µM) | –
2 | Clc1ccc2c(c1)cc(-c1nc3cc(Br)ccc3[nH]1)c1nnnn12 | 1000 µg/mL (≈ 2500 µM) | 500 µg/mL (≈ 1250 µM) | > 1000 µg/mL | 250 µg/mL (≈ 626 µM) | 250 µg/mL (≈ 626 µM) | 500 µg/mL (≈ 1250 µM) | 500 µg/mL (≈ 1250 µM) | 250 µg/mL (≈ 626 µM) | –
3 | Cc1ccc2[nH]c(-c3cc4ccccc4n4nnnc34)nc2c1 | 500 µg/mL (≈ 1660 µM) | 500 µg/mL (≈ 1660 µM) | 1000 µg/mL (≈ 3330 µM) | 250 µg/mL (≈ 832 µM) | 125 µg/mL (≈ 416 µM) | 500 µg/mL (≈ 1660 µM) | 500 µg/mL (≈ 1660 µM) | 250 µg/mL (≈ 832 µM) | –
4 | O=C(O)c1cn(C2CC2)c2cc(N3CCNCC3)c(F)cc2c1=O [CIPROFLOXACIN] | – | 25 µg/mL (≈ 75.4 µM) | – | 25 µg/mL (≈ 75.4 µM) | 25 µg/mL (≈ 75.4 µM) | 50 µg/mL (≈ 151 µM) | – | – | –
5 | c1ccc2c(c1)cc(-c1nc3ccccc3[nH]1)c1nnnn12 | 1000 µg/mL (≈ 3490 µM) | 200 µg/mL (≈ 699 µM) | > 1000 µg/mL | 500 µg/mL (≈ 1750 µM) | 500 µg/mL (≈ 1750 µM) | 500 µg/mL (≈ 1750 µM) | 250 µg/mL (≈ 873 µM) | 200 µg/mL (≈ 699 µM) | –
6 | GENTAMICIN | – | 5 µg/mL | – | – | 0.05 µg/mL | 0.5 µg/mL | 5 µg/mL | 1 µg/mL | 5 µg/mL
7 | Brc1ccc2[nH]c(-c3cc4ccccc4n4nnnc34)nc2c1 | 1000 µg/mL (≈ 2740 µM) | 250 µg/mL (≈ 685 µM) | 1000 µg/mL (≈ 2740 µM) | 100 µg/mL (≈ 274 µM) | 100 µg/mL (≈ 274 µM) | 250 µg/mL (≈ 685 µM) | 250 µg/mL (≈ 685 µM) | 500 µg/mL (≈ 1370 µM) | –
8 | NYSTATIN | 100 µg/mL | – | 100 µg/mL | – | – | – | – | – | –
9 | Cc1ccc2c(c1)cc(-c1nc3ccccc3[nH]1)c1nnnn12 | 1000 µg/mL (≈ 3330 µM) | 250 µg/mL (≈ 832 µM) | 1000 µg/mL (≈ 3330 µM) | 125 µg/mL (≈ 416 µM) | 100 µg/mL (≈ 333 µM) | 200 µg/mL (≈ 666 µM) | 200 µg/mL (≈ 666 µM) | 100 µg/mL (≈ 333 µM) | –
10 | Cc1ccc2c(c1)cc(-c1nc3cc(C)ccc3[nH]1)c1nnnn12 | 1000 µg/mL (≈ 3180 µM) | 500 µg/mL (≈ 1590 µM) | > 1000 µg/mL | 1000 µg/mL (≈ 3180 µM) | 250 µg/mL (≈ 795 µM) | 500 µg/mL (≈ 1590 µM) | 500 µg/mL (≈ 1590 µM) | 500 µg/mL (≈ 1590 µM) | –
11 | COc1ccc2c(c1)cc(-c1nc3ccccc3[nH]1)c1nnnn12 | 500 µg/mL (≈ 1580 µM) | 250 µg/mL (≈ 790 µM) | 1000 µg/mL (≈ 3160 µM) | 250 µg/mL (≈ 790 µM) | 250 µg/mL (≈ 790 µM) | 250 µg/mL (≈ 790 µM) | 500 µg/mL (≈ 1580 µM) | 250 µg/mL (≈ 790 µM) | –
12 | COc1ccc2c(c1)cc(-c1nc3cc(Cl)ccc3[nH]1)c1nnnn12 | 250 µg/mL (≈ 713 µM) | 500 µg/mL (≈ 1430 µM) | 500 µg/mL (≈ 1430 µM) | 500 µg/mL (≈ 1430 µM) | 500 µg/mL (≈ 1430 µM) | 500 µg/mL (≈ 1430 µM) | 500 µg/mL (≈ 1430 µM) | 125 µg/mL (≈ 356 µM) | –
13 | COc1ccc2c(c1)cc(-c1nc3cc(Br)ccc3[nH]1)c1nnnn12 | 1000 µg/mL (≈ 2530 µM) | 500 µg/mL (≈ 1270 µM) | 1000 µg/mL (≈ 2530 µM) | 500 µg/mL (≈ 1270 µM) | 500 µg/mL (≈ 1270 µM) | 1000 µg/mL (≈ 2530 µM) | 250 µg/mL (≈ 633 µM) | 500 µg/mL (≈ 1270 µM) | –
14 | Clc1ccc2c(c1)cc(-c1nc3ccccc3[nH]1)c1nnnn12 | 125 µg/mL (≈ 390 µM) | 500 µg/mL (≈ 1560 µM) | 500 µg/mL (≈ 1560 µM) | 250 µg/mL (≈ 779 µM) | 1000 µg/mL (≈ 3120 µM) | 500 µg/mL (≈ 1560 µM) | 250 µg/mL (≈ 779 µM) | 250 µg/mL (≈ 779 µM) | –
15 | Clc1ccc2c(c1)cc(-c1nc3cc(Cl)ccc3[nH]1)c1nnnn12 | 1000 µg/mL (≈ 2820 µM) | 500 µg/mL (≈ 1410 µM) | > 1000 µg/mL | 500 µg/mL (≈ 1410 µM) | 125 µg/mL (≈ 352 µM) | 250 µg/mL (≈ 704 µM) | 250 µg/mL (≈ 704 µM) | 125 µg/mL (≈ 352 µM) | –
16 | COC1=CC(=O)C[C@@H](C)[C@]12Oc1c(Cl)c(OC)cc(OC)c1C2=O [GRISEOFULVIN] | 500 µg/mL (≈ 1420 µM) | – | 100 µg/mL (≈ 283 µM) | – | – | – | – | – | –
17 | O=C(N[C@H](CO)[C@H](O)c1ccc([N+](=O)[O-])cc1)C(Cl)Cl [CHLORAMPHENICOL] | – | 50 µg/mL (≈ 155 µM) | – | 50 µg/mL (≈ 155 µM) | 50 µg/mL (≈ 155 µM) | 50 µg/mL (≈ 155 µM) | 50 µg/mL (≈ 155 µM) | 50 µg/mL (≈ 155 µM) | –
18 | CCn1cc(C(=O)O)c(=O)c2cc(F)c(N3CCNCC3)cc21 [NORFLOXACIN] | – | 10 µg/mL (≈ 31.3 µM) | – | 10 µg/mL (≈ 31.3 µM) | 10 µg/mL (≈ 31.3 µM) | 10 µg/mL (≈ 31.3 µM) | 50 µg/mL (≈ 157 µM) | 100 µg/mL (≈ 313 µM) | –
19 | Cc1ccc2c(c1)cc(-c1nc3cc(Br)ccc3[nH]1)c1nnnn12 | 1000 µg/mL (≈ 2640 µM) | 250 µg/mL (≈ 659 µM) | > 1000 µg/mL | 500 µg/mL (≈ 1320 µM) | 500 µg/mL (≈ 1320 µM) | 250 µg/mL (≈ 659 µM) | 1000 µg/mL (≈ 2640 µM) | 500 µg/mL (≈ 1320 µM) | –
20 | Cc1ccc2[nH]c(-c3cc4cc(Cl)ccc4n4nnnc34)nc2c1 | 1000 µg/mL (≈ 2990 µM) | 250 µg/mL (≈ 747 µM) | > 1000 µg/mL | 500 µg/mL (≈ 1490 µM) | 250 µg/mL (≈ 747 µM) | 250 µg/mL (≈ 747 µM) | 500 µg/mL (≈ 1490 µM) | 125 µg/mL (≈ 373 µM) | –
21 | CC1(C)S[C@@H]2[C@H](NC(=O)[C@H](N)c3ccccc3)C(=O)N2[C@H]1C(=O)O [AMPICILLIN] | – | 100 µg/mL (≈ 286 µM) | – | 100 µg/mL (≈ 286 µM) | 100 µg/mL (≈ 286 µM) | 100 µg/mL (≈ 286 µM) | 250 µg/mL (≈ 715 µM) | 250 µg/mL (≈ 715 µM) | –
22 | Clc1ccc2[nH]c(-c3cc4ccccc4n4nnnc34)nc2c1 | 500 µg/mL (≈ 1560 µM) | 500 µg/mL (≈ 1560 µM) | 1000 µg/mL (≈ 3120 µM) | 100 µg/mL (≈ 312 µM) | 250 µg/mL (≈ 779 µM) | 500 µg/mL (≈ 1560 µM) | 500 µg/mL (≈ 1560 µM) | 500 µg/mL (≈ 1560 µM) | –
23 | Cc1ccc2c(c1)cc(-c1nc3cc(Cl)ccc3[nH]1)c1nnnn12 | 1000 µg/mL (≈ 2990 µM) | 500 µg/mL (≈ 1490 µM) | > 1000 µg/mL | 500 µg/mL (≈ 1490 µM) | 250 µg/mL (≈ 747 µM) | 500 µg/mL (≈ 1490 µM) | 500 µg/mL (≈ 1490 µM) | 500 µg/mL (≈ 1490 µM) | –
